Source: US11187660B2, “Fluorescent probes for monitoring voltage by photo-induced electron transfer” (The Regents of the University of California, priority 2011, dated 2021)

What was measured:
[1] = Absorbance and emission spectra in aqueous buffer with Triton X-100; type: physicochemical; conditions: 5 mM sodium phosphate, pH 9, 0.1% Triton X-100
Method: FIG. 8A, FIG. 8B, and FIG. 8C show the normalized absorbance and emission spectra for exemplary compounds of the invention in 5 mM sodium phosphate, pH 9 with 0.1% Triton X-100. Black lines are absorbance spectra; grey lines are emission spectra. a) VF1.4.Cl, b) VF2.4.Cl, and c) VF2.1.Cl.
All dyes feature emission and excitation profiles typical of dichlorofluoresceins (VF1.4.Cl: λmax=521 nm, ε=93,000 M^−1·cm^−1, λem=534 nm, Φ=0.24; VF2.4.Cl: λmax=522 nm, ε=97,000 M^−1·cm^−1, λem=536 nm, Φ=0.054; VF2.1.Cl: λmax=522 nm, ε=98 000 M^−1·cm^−1, λcm=535 nm, Φ=0.057, 5 mM sodium phosphate, pH 9, 0.1% Triton X-100) (FIG. 8).
UV absorbance and fluorescence spectra were recorded on a Cary 3E (Varian) and Fluorolog 2 (Spex) fluorimeter, respectively. Analytical, semi-preparative, and preparative HPLCs were performed on Agilent HPLCs, with Luna C18(2) columns (Phenomenex) using water (solvent A) and acetonitrile (solvent B) with 0.05% TFA as an additive. Low resolution ESI mass spectrometry was performed on an Agilent LC/MSD Trap XCT coupled to an Agilent HPLC. High resolution mass spectra were acquired on a ThermoFisher Orbitrap XL hybrid mass spectrometer. ^1H NMR spectra were collected in CDCl3 or d6-DMSO (Cambridge Isotope Laboratories, Cambridge, Mass.) at 25° C. on a 400 Varian Mercury Plus or Jeol ECA 500 spectrometer at the Department of Chemistry and Biochemistry NMR Facility at the University of California, San Diego. All chemical shifts are reported in the standard δ notation of parts per million using the peak of residual proton signals of CDCl3 or d6-DMSO as an internal reference.

[2] = test system: HEK293 cells; experiment: Voltage sensitivity of fluorescence in voltage-clamped HEK cells (whole-cell recording); type: cell-based, human
Excerpt: Membrane voltage of cells loaded with VF1.4.Cl or VF2.4.Cl were controlled by making tight-seal whole-cell recordings. Cells were maintained at a holding potential of −60 mV and stepped for 50 ms to various depolarizing and hyperpolarizing potentials (FIG. 5A), while simultaneously acquiring epifluorescence images. For both sensors, depolarizing steps result in fluorescence increases while hyperpolarizing steps decrease fluorescence intensity, in keeping with our proposed mechanism. […] For di-4-ANEPPS, typical values are 0.08-0.12% per mV. The larger changes for VF1.4.Cl and VF2.4.Cl compared to di-4-ANEPPS are somewhat expected, since a PeT-based voltage sensor samples the entire emission spectrum, whereas electrochromic dyes are limited to the edge of the spectrum only. For both probes, the voltage responses are linear across the physiologically relevant ranges of −100 mV to +100 mV. To assess the speed of the optical response to voltage, VF2.4.Cl signals were monitored in response to voltage steps of 100 mV from a holding potential of −60 mV.
We characterized the voltage sensitivity of all three indicators by making tight-seal whole-cell recordings of HEK293 cells stained with the VF sensors. Cells were voltage-clamped at −60 mV holding potential and sequentially stepped to depolarizing and hyperpolarizing potentials at 20-mV increments (FIG. 9B). For all three dyes, depolarizing steps produced fluorescence increases, whereas hyperpolarizing steps produced fluorescence decreases, in keeping with the proposed PeT mechanism. The fluorescence response is linear over the range of −100 mV to +100 mV (FIG. 9C), with voltage sensitivities ΔF/F per 100 mV of 20±1% for VF1.4.Cl and 25±1% for VF2.4.Cl. This statistically significant increase in voltage sensitivity (P<0.05, two-tailed Student t test) is expected upon increasing the length of the molecular wire, and is 2.5- to 4-times more sensitive than di-4-ANEPPS, which, in our hands, gives sensitivities of between 6% and 10% ΔF/F per 100 mV. […] To investigate the speed of response of VF probes, we again made whole-cell recordings of cells stained with VF2.4.Cl, applied 100-mV depolarizing steps from a holding potential of −60 mV, and recorded both the electrophysiological signals and the optical signals.
Electrophysiological recordings of HEK293 cells and cultured neurons were performed with an Axopatch 200A or 200B amplifier (Molecular Devices) at room temperature. The signals were digitized with Digidata 1332A and recorded with pCLAMP 9 software (Molecular Devices) on a PC. Analysis of electrophysiological data was done with AxoGraph X (AxoGraphX), pCLAMP 9, and/or ClampFit (Molecular Devices). For most experiments the extracellular solution consisted of (in mM) 145 NaCl, 20 glucose, 10 HEPES, 3 KCl, 2 CaCl2, 1 MgCl2 (pH 7.35, 310 mOsm). The intracellular solution contained (in mM) 115 potassium gluconate, 10 BAPTA tetrapotassium salt, 10 HEPES, 5 NaCl, 10 KCl, 2 ATP disodium salt, 0.3 GTP trisodium salt (pH 7.25, 290 mOsm).
For studies to determine excitation sensitivity of dyes, illumination was provided by a Polychrom IV light source (T.I.L.L. Photonics GMBH) with a mechanical shutter (Uniblitz VS25). For all other studies, light was provided by an Xenon arc lamp powered by an Optiquip Power supply (Optiquip) with a mechanical shutter controlled by a Lambda 10-2 controller (Sutter). […]

[3] = test system: HEK cells; experiment: Bleach rate in HEK cells; type: cell-based, human; conditions: for bleach rate: HEK cells, 7 W/cm^2
Method: The dibutyl (VFx.4.Cl) dyes stain the cell membranes of HEK293 cells when loaded at a concentration of 2 μM for 15 min at 37° C. in buffer with 0.1% DMSO as cosolvent (FIG. 9A, and FIG. 10). […] The bleach rates of the probes were tested in HEK cells and compared with di-4-ANEPPS. The bleach rates for VF1.4.Cl, VF2.4.Cl, and VF2.1.Cl at 7 W/cm^2 were measured to be 3.9±0.1×10^−2 s^−1, 1.8±0.1×10^−2 s^−1, and 8.0±0.1×10^−3 s^−1, respectively.
For studies to determine excitation sensitivity of dyes, illumination was provided by a Polychrom IV light source (T.I.L.L. Photonics GMBH) with a mechanical shutter (Uniblitz VS25). For all other studies, light was provided by an Xenon arc lamp powered by an Optiquip Power supply (Optiquip) with a mechanical shutter controlled by a Lambda 10-2 controller (Sutter). Light from the Xenon arc lamp was filtered through a 480 nm filter (30 nm bandpass, Chroma), a 510 nm dichroic (Semrock), a 530 nm emission filter (50 nm bandpass, Semrock), and focused through a 40×/1.4 oil objective. For di-4-ANEPPS imaging, a 625 nm emission filter with a 50 nm bandpass was used. Bleaching studies used identical illumination conditions (480/30 nm excitation, 510 nm dichroic, 7 W/cm^2 output) and were corrected by normalizing for the extinction coefficient at the excitation wavelengths (465-495 nm).

[4] = test system: HEK cells; experiment: Excitation wavelength dependence of voltage response in HEK cells; type: cell-based, human; conditions: 100 mV depolarizing steps, excitation 445 to 500 nm in 5 nm increments for VF2.4.Cl
Excerpt: The ΔF/F for VF2.4.Cl is relatively insensitive to the excitation wavelength. As opposed to di-4-ANEPPS and other electrochromic dyes (ref the biochemistry paper and the ANINNE6 2004 Denk paper), which are highly sensitive to excitation wavelength, PeT-based sensors yield fluorescent responses which are invariant across their excitation spectra. To establish the invariant nature of the fluorescence response, HEK cells were loaded, as before, with VF2.4.Cl and subjected to depolarizing steps of 100 mV, each time varying the excitation wavelength. […] In contrast, di-4-ANEPPS varies by nearly 100%. Excitation at the red edge of the spectrum gives a maximal response whereas excitation at the blue edge gives a response that is some 10- to 20-fold less than the maximal response.
The fluorescence response of VF2.4.Cl to voltage changes is insensitive to the excitation wavelength, as is true for PeT-based probes, such as fluo-3 and Calcium Green-1. We assayed the wavelength dependence of VF2.4.Cl by changing the excitation wavelength in 5-nm steps and determined that the fluorescence response of VF2.4.Cl to a 100-mV depolarization from a holding potential of −60 mV varied only about 15% when testing wavelengths from 445 to 500 nm (FIG. 11C). […]

[5] = test system: HEK293 cells; conditions: typical values for di-4-ANEPPS; cited from earlier work
[6] = test system: HEK cells; conditions: literature (32); cited from earlier work
[7] = test system: cultured hippocampal neurons; conditions: cultured hippocampal neurons (25); cited from earlier work

Φ [1]	ε [1]	λem [1]	λmax [1]	bleach rate [3]	bleach rate, fold smaller than di-4-ANEPPS ([3]; identical illumination conditions)	SMILES	voltage sensitivity ΔF/F per 100 mV ([2]; HEK293 cells voltage-clamped at −60 mV holding potential)	sensitivity, fractional fluorescence change (ΔF/F) versus change in membrane potential ([2]; HEK cells, holding potential −60 mV)	variation of fractional fluorescence response across excitation spectrum [4]	sensitivity ΔF/F, typical values [5]	variation of response over excitation spectrum [6]	ΔF/F for action potentials [7]
0.24	93,000 M^−1·cm^−1	534 nm	521 nm	3.9±0.1×10^−2 s^−1	two-	CCCCN(CCCC)c1ccc(/C=C/c2ccc(-c3c4cc(Cl)c(=O)cc-4oc4cc(O)c(Cl)cc34)c(S(=O)(=O)O)c2)cc1 [VF1.4.Cl, (E)-5-(4-(dibutylamino)styryl)-2-(2,7-dichloro-6-hydroxy-3-oxo-3H-xanthen-9-yl)benzenesulfonic acid]	20±1%	0.20±0.01 % per mV				
				6.9±0.1×10^−2 s^−1		CCCCN(CCCC)c1ccc2cc(/C=C/c3cc[n+](CCCS(=O)(=O)[O-])cc3)ccc2c1 [di-4-ANEPPS]			~100%	0.08-0.12 % per mV	~100%	
						Cc1ccc(N(CC(=O)O)CC(=O)O)c(OCCOc2cc(-c3c4cc(Cl)c(=O)cc-4oc4cc(O)c(Cl)cc34)ccc2N(CC(=O)O)CC(=O)O)c1 [fluo-3]						up to 150%
